Consider one substance from patent publication US10517954B2, “Pegylated carfilzomib compounds” (AMGEN INC., priority 2016, dated 2019).

For this assay, the system named is Proteasome chymotrypsin-like (CT-L) activity. Description: Proteasome CT-L activity in blood and tissues after i.v. dosing (FIG. 3). It counts as in vivo, mice (Balb/c). The settings on record: i.v. bolus; blood, adrenal gland, heart and liver, in mice. The method, then:
Carfilzomib standard was formulated in an aqueous solution of 10% (w/v)sulfobutylether-β-cyclodextrin and 10 mmol/L sodium citrate (pH 3.5) for administration (5 mg/kg). At selected time points after i.v. drug administration, tissue samples (adrenal, heart, liver and bone marrow) were collected. Whole blood was collected by cardiac puncture into tubes containing sodium heparin.
Approximately 0.4 mL of whole blood is collected using either EDTA microcentrifuged tubes. Samples are immediately placed on ice and spun at maximum speed for 2 minutes in a microcentrifuge at room temperature (RT). Cell pellets are stored on wet ice. Whole blood cell pellets are resuspended in 1 ml of phosphate buffered saline (PBS) and centrifuged at max speed at 4° C. Supernatants are removed and the pellets are washed a second time with PBS. Samples are resuspended in 2 volumes of lysis buffer (20 mM Tris, pH 8.0, 5 mM EDTA) then frozen and stored at −80° C. until analysis. […]
All samples were thawed on ice. […] These samples were then ready for assaying, or they may be frozen at −80° C. […] These samples were then ready for assaying, or they may be frozen at −80° C. […] The protein concentration for each sample was measured by Bradford assay. Proteasome chymotrypsin-like (CT-L) activity was quantitated by monitoring the release of free AMC from the fluorogenic peptide Suc-Leu-Leu-Val-Tyr-AMC (BostonBiochem).

On to “4-(4-Acetoxy-3-((1-(PEG20K-4-Arm)-1H-1,2,3-triazol-4-yl)methoxy)benzyl)-4-((4S,7S,10S,13S)-10-benzyl-7-isobutyl-15-methyl-13-((R)-2-methyloxirane-2-carbonyl)-2,5,8,11-tetraoxo-4-phenethyl-3,6,9,12-tetraazahexadecyl)morpholin-4-ium methanesulfonate [Example 1]”, for which the “CT-L activity versus standard carfilzomib” value is “comparable”.
